Laboratory results published in US9592223B2, “Small molecule inhibitors of MALT1” (Cornell University, priority 2012, dated 2017).

Assays:
[1] = system: GCB-DLBCL cell lines OCI-Ly7 and OCI-Ly1; experiment: Growth inhibition, GCB-DLBCL cell lines; type: cell-based, human; details: increasing concentrations, single dose, 48 hr
Procedure: Endogenous MALT1 activity was evaluated by Western blotting for A20, BCL10 and CYLD; and NF-κB activation, by phospho-IκB-α and total IκB-α. Dependence on MALT1 proteolytic activity for proliferation was tested by 50[…]μM Z-VRPR-FMK treatment for 48 hr. […] The U2932 and HLY1 ABC-DLBCL cell lines harbor mutations in TAK1 and A20, which activate NF-κB signaling downstream of MALT1.
Cell proliferation was determined by ATP quantification using a luminescent method (CellTiter-Glo, Promega, Madison, Wis.) and Trypan blue dye-exclusion (Sigma, St. Louis, Mo.). Cell viability in drug-treated cells was normalized to their respective controls (fractional viability) and results are given as 1-fractional viability. […]
DLBCL cell lines were grown in exponential growth conditions during the 48 hr of treatment. Cell proliferation was determined by ATP quantification using a luminescent method (CellTiter-Glo, Promega, Madison, Wis.) and Trypan blue dye-exclusion (Sigma, St. Louis, Mo.). Luminescence was measured using the Synergy4 microplate reader (BioTek Instruments, Winooski, Vt.). Standard curves for each cell line were calculated by plotting the cell number (determined by the Trypan blue method) against their luminescence values and number of cells was calculated accordingly. […]

[2] = system: cleavage of A20, BCL10 and RELB; experiment: Cleavage of MALT1 substrates with MG-132 in HBL-1 and TMD8 cell lines, Western blot; type: cell-based, human; details: 2 μM for 30 minutes, then 5 μM MG-132 for one or two hour
Procedure: As these proteins are directed to proteasomal degradation after cleavage (Coornaert et al., 2008; Hailfinger et al., 2011; Rebeaud et al., 2008), we used the proteasome inhibitor MG-132 to facilitate visualization of cleavage products (FIG. 4A).
Equal amounts of total protein (20-75 μg) were separated on sodium dodecyl sulfate-polyacrylamide gel electrophoresis (SDS-PAGE), and electrotransferred onto nitrocellulose membranes. Membranes were incubated with primary antibodies (MALT1, BCL-10, CYLD from Santa Cruz Biotechnologies, Santa Cruz, Calif.; A20 from eBioscience, San Diego, Calif.; phospho-IκB-α, IκB-α, c-REL, RELB from Cell Signaling, Danvers, Mass. and α-Tubulin from Sigma), followed by secondary antibodies conjugated to horseradish peroxidase, which were detected by chemiluminescence (Pierce, Thermo Scientific, Rockford, Ill.).

[3] = system: MALT1^WT NF-κB activation; experiment: NF-κB reporter assay in 293T cells, PMA/ionomycin, BCL10 and MALT1 WT; type: cell-based; details: pre-treatment
Excerpt: (§1) Antigen receptor-mediated NF-κB signaling partly depends on MALT1 activity (Ruefli-Brasse et al., 2003; Ruland et al., 2003). […] First, 293T cells were transfected with the NF-κB reporter vector (NF-κB)5-luc2CP-pGL4 (harboring 5 copies of the NF-κB consensus response element and a destabilized Firefly luciferase) and TK-pRL control together with plasmids expressing BCL10 and either MALT1^WT or MALT1^C464A. […] HBL-1 was transfected with the reporter construct (NF-κB)5-luc2CP-pGL4 and TK-pRL control.
(§2) Reporter assays were performed in 293T cells seeded at a density of 2×10^5 cells per well of a 12-well dish. 100 ng of (NF-κB)5-Luc2CP-pGL4 and 10 ng of TK-Renilla internal control plasmid were cotransfected along with 25 ng of the indicated plasmids (MIGR1-MALT1^WT or MIGR1-MALT1^C464A and pcDNA4-Flag-Bcl10) using Lipofectamine 2000 (Invitrogen). Lysates were submitted to dual luciferase assays following manufacturer's protocol (Promega). In HBL-1, 5 μg of (NF-κB)5-Luc2CP-pGL4 and 50 ng of TK-Renilla internal control plasmid per 5×10^6 cells were cotransfected using nucleofection (Amaxa, Lonza, Basel, Switzerland). Forty-eight hours after transfection, cells were plated at a density of 5×10^4 cells per well of a 24-well plate and treated as indicated. Lysates were submitted to dual luciferase assays following manufacturer's protocol (Promega).

[4] = system: MALT1^C464A (inactive mutant) NF-κB activation; experiment: NF-κB reporter assay in 293T cells, PMA/ionomycin, BCL10 and MALT1 C464A; type: cell-based; details: pre-treatment
Excerpt: as §1, §2

[5] = system: NF-κB signaling gene signatures; experiment: Gene expression profiling and GSEA in HBL-1 and TMD8 cell lines; type: cell-based, human; details: 8 hr, HBL-1 200 nM, TMD8 500 nM
Procedure: The impact of MI-2 on NF-κB signaling was further characterized by gene expression profiling. […] Z-VRPR-FMK was previously shown to attenuate the NF-κB signature in ABC-DLBCL cell lines (Hailfinger et al., 2009). […] GSEA was next performed using two independent ABC-DLBCL NF-κB gene expression signatures derived from either OCI-Ly3 and OCI-Ly10 or HBL-1 cell lines.
RNA integrity was determined using the RNA 6000 Nano LabChip Kit on an Agilent 2100 Bioanalyzer (Agilent Technologies, Santa Clara, Calif.). Samples were processed following Illumina recommendations and cRNA was hybridized to the HumanHT-12 v4 Expression BeadChip (Illumina, San Diego, Calif.). Arrays were scanned on the iScan system. Data pre-processing and quality control were performed using GenomeStudio. The data were log2-transformed combined with quantile normalization (Du et al., 2008). GEO accession number GSE40003.
In order to determine the biological significance of the results, enrichment tests with respect to sets of related genes were carried out. To this end, we used GSEA (Gene Set Enrichment Analysis) software, and datasets were pre-ranked by fold change value (Subramanian et al., 2005). The p-values for each gene-set were computed on the basis of 1,000 iterations and multiple hypotheses testing correction for FDR calculation (Storey and Tibshirani, 2003).

[6] = system: HBL-1 and TMD8 cells; experiment: Trypan blue exclusion and Annexin V+ DAPI- apoptosis over 14 days, ABC-DLBCL lines; type: cell-based, human; details: treated daily at GI25 and GI50, every 48 hr for 14 days
Procedure: Cell proliferation was examined using the CFSE dilution assay by flow cytometry on viable cells at 48, 72 and 96 h. […] Trypan blue exclusion and apoptosis assessed by Annexin V^+ DAPI^− flow cytometry was measured every 48 hr for a period of 14 days.
Apoptosis was assessed by AnnexinV-APC/DAPI (BD Pharmingen) staining followed by flow cytometry.

Structure (SMILES): COCCOc1nc(-c2ccc(Cl)c(Cl)c2)n(-c2ccc(NC(=O)CCl)cc2)n1 [MI-2]
- growth inhibition [1]: resistant
- cleaved forms of A20, BCL10 and RELB [2]: diminished the abundance of cleaved forms and/or increased the abundance of full-length proteins
- NF-κB induction by PMA/ionomycin stimulation [3]: significantly inhibited NF-κB induction
- NF-κB induction by PMA/ionomycin stimulation [4]: did not significantly affect
- GSEA of ABC-DLBCL NF-κB gene expression signatures [5]: significant enrichment of these NF-κB gene sets among genes downregulated
- GSEA of Z-VRPR-FMK signature [5]: significantly enriched among genes downregulated after MI-2-treatment
- viability and apoptosis [6]: profoundly suppressed
